Assay results reported in patent US8232409B2, “Heterocyclic benzimidazoles as TRPM8 modulators” (Janssen Pharmaceutica N.V., priority 2008, dated 2012).
Counter-ions that a name gives are not always drawn.

Tests used:
[1] = tested on: icilin-induced "wet-dog" shakes in Sprague Dawley rats; test: Reversal of icilin-induced "wet-dog" shakes in rats; assay type: in vivo; details: po; rat; 10 mg/kg p.o.; 1 h post-icilin
[2] = tested on: CCI-induced cold hypersensitivity in Sprague Dawley rats; test: Chronic constriction injury (CCI)-induced neuropathic pain, acetone-induced cold hypersensitivity; assay type: in vivo; details: po; rat CCI; 10 mg/kg p.o.; 3 h post-dose; read-out: % Inhibition (acetone-evoked paw withdrawals)
Text: Male Sprague Dawley rats (225-450 g; n=5-8/treatment) were used to evaluate the ability of selected compounds of the Formula (I) to reverse CCI-induced cold hypersensitivity. Four loose ligatures of 4-0 chromic gut were surgically placed around the left sciatic nerve under inhalation anesthesia as described by Bennett et al. (Bennett, G. J.; Xie, Y. K. Pain 1988, 33(1), 87-107). Fourteen to 35 days following CCI surgery, subjects were placed in elevated observation chambers containing wire mesh floors and five applications of acetone (0.05 mL/application separated by approximately 5 minutes) were spritzed onto the plantar surface of the paw using a multidose syringe. An abrupt withdrawal or lifting of the paw was considered a positive response. The number of positive responses was recorded for each rat over the five trials. Following baseline withdrawal determinations, compounds of Formula (I) are administered in an appropriate vehicle, such as hydroxypropyl-β-cyclodextrin ([…]), methylcellulose, Methocel, 10% Solutol, or H2O, or the like, by the appropriate route, i.p. or p.o. The number of withdrawals were redetermined 1 to 3 h after compound administration. Results are presented as a percent inhibition of shakes, which was calculated for each subject as [1−(test compound withdrawals/pre-test withdrawals)]×100 and then averaged by treatment.

canine TRPM8 = target: T1, canine TRPM8 (Canis lupus familiaris, UniProt Q1A7N1); test: In vitro canine TRPM8 functional assay (icilin-induced intracellular Ca2+, FLIPR/FDSS);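 on all read-outs here: intracellular Ca2+ tracked with a Ca2+-sensitive fluorescent dye, compound applied 5 min before icilin was added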; assay type: cell-based; details: HEK293 cells stably expressing canine TRPM8; for inhibition at 0.2 µM: 0.200 μM compound, icilin challenge (~80% maximal response), read-out: % Inh. @ 0.200 μM; for IC50: icilin challenge, eight-point dose-response
T1 construct: expressed in transfected cells
T1 sequence (Q1A7N1 1-1104): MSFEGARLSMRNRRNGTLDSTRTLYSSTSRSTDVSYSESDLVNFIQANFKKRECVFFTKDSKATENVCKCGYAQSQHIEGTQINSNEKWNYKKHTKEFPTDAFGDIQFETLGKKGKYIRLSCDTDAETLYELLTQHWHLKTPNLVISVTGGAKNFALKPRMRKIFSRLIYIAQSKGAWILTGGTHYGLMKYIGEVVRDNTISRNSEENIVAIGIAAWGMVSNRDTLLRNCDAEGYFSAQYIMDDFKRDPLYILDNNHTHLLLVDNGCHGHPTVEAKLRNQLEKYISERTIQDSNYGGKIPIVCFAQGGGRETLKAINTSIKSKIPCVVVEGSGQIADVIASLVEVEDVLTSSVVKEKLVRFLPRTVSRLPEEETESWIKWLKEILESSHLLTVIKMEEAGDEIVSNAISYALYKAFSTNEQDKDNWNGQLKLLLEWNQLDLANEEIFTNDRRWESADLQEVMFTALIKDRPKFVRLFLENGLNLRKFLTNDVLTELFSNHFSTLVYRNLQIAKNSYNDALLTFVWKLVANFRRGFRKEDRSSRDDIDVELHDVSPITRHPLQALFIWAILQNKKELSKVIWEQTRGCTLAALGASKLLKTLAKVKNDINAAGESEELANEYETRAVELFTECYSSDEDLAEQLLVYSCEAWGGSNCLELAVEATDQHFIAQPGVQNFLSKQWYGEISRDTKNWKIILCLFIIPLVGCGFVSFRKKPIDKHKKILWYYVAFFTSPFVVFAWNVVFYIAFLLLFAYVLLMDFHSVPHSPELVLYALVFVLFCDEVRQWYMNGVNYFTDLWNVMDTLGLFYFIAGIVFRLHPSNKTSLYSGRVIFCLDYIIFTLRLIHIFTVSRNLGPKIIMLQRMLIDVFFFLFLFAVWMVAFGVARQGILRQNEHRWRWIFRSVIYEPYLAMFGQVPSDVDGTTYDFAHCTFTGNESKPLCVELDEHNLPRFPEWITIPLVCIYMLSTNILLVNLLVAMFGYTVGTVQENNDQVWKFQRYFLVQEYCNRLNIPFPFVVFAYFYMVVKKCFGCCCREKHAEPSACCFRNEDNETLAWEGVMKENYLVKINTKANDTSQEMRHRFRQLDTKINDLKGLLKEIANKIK

Row | IC50 (canine TRPM8) [nM] | Compound | inhibition in vivo at 10 mg/kg [1] [%] | inhibition in vivo at 10 mg/kg [2] [%] | inhibition at 0.2 µM (canine TRPM8) [%]
1 |  | FC(F)(F)Oc1ccccc1-c1ccc2[nH]c(C3=NOC4(CCCCC4)C3)nc2c1 [Cpd 7, 3-[5-(2-Trifluoromethoxy-phenyl)-1H-benzimidazol-2-yl]-1-oxa-2-aza-spiro[4.5]dec-2-ene hydrochloride] | > 96 | 83 | 
2 |  | FC(F)(F)c1ccccc1-c1cc(Cl)c2[nH]c(C3=NOC4(CCCCC4)C3)nc2c1 [Cpd 16, 3-[7-Chloro-5-(2-trifluoromethylphenyl)-1H-benzimidazol-2-yl]-1-oxa-2-aza-spiro[4.5]dec-2-ene hydrochloride] | > 99 | 82.5 | 
3 |  | FC(F)(F)c1ccccc1-c1cc(C(F)(F)F)c2[nH]c(C3=NOC4(CCCCC4)C3)nc2c1 [Cpd 27, 3-[7-Trifluoromethyl-5-(2-trifluoromethyl-phenyl)-1H-benzimidazol-2-yl]-1-oxa-2-aza-spiro[4.5]dec-2-ene hydrochloride] | > 99 | 83 | 100
4 |  | FC(F)(F)c1ccccc1-c1ccc2nc(C3=NOC4(CCCCC4)C3)[nH]c2c1 [Cpd 1, 3-[5-(2-Trifluoromethyl-phenyl)-1H-benzimidazol-2-yl]-1-oxa-2-aza-spiro[4.5]dec-2-ene] |  | 65 | 
5 |  | Fc1cccc(OC(F)(F)F)c1-c1ccc2[nH]c(C3=NOC4(CCCCC4)C3)nc2c1 [Cpd 8, 3-[5-(2-Fluoro-6-trifluoromethoxy-phenyl)-1H-benzimidazol-2-yl]-1-oxa-2-aza-spiro[4.5]dec-2-ene hydrochloride] | > 96 |  | 
6 |  | FC(F)(F)Oc1ccccc1-c1cc(C(F)(F)F)c2[nH]c(C3=NOC4(CCCCC4)C3)nc2c1 [Cpd 51, 3-[5-(2-Trifluoromethoxyphenyl)-7-trifluoromethyl-1H-benzimidazol-2-yl]-1-oxa-2-aza-spiro[4.5]dec-2-ene hydrochloride] | > 98 | 57.1 | 97
7 |  | Fc1ccccc1-c1cc(C(F)(F)F)c2[nH]c(C3=NOC4(CCCCC4)C3)nc2c1 [Cpd 53, 3-[5-(2-Fluorophenyl)-7-trifluoromethyl-1H-benzimidazol-2-yl]-1-oxa-2-aza-spiro[4.5]dec-2-ene hydrochloride] | > 98 | 42.9 | 97
8 |  | FC(F)(F)c1cc(-c2ccccc2Cl)cc2nc(C3=NOC4(CCCCC4)C3)[nH]c12 [Cpd 30, 3-[5-(2-Chloro-phenyl)-7-trifluoromethyl-1H-benzimidazol-2-yl]-1-oxa-2-aza-spiro[4.5]dec-2-ene hydrochloride] | > 98 | 62.9 | 97
9 | 1.1 | CC1C(c2nc3cc(-c4ccccc4C(F)(F)F)cc(C(F)(F)F)c3[nH]2)=NOC12CCCCC2 (centres unmarked) [Cpd 28, 4-Methyl-3-[7-trifluormethyl-5-(2-trifluoromethyl-phenyl)-1H-benzimidazol-2-yl]-1-oxa-2-aza-spiro[4.5]dec-2-ene hydrochloride] | 30 |  | 101
10 |  | Clc1ccccc1-c1ccc2[nH]c(C3=NOC4(CCCCC4)C3)nc2c1 [Cpd 45, 3-[5-(2-Chlorophenyl)-1H-benzimidazol-2-yl]-1-oxa-2-aza-spiro[4.5]dec-2-ene hydrochloride] |  |  | 97
11 | 6.3 | CC1(C)CCC2(CC1)CC(c1nc3cc(-c4ccccc4C(F)(F)F)cc(C(F)(F)F)c3[nH]1)=NO2 [Cpd 39, 8,8-Dimethyl-3-[7-trifluoromethyl-5-(2-trifluoromethyl-phenyl)-1H-benzimidazol-2-yl]-1-oxa-2-aza-spiro[4.5]dec-2-ene hydrochloride] |  |  | 99
12 | 5.2 | N#Cc1cc(-c2ccccc2C(F)(F)F)cc2nc(C3=NOC4(CCOCC4)C3)[nH]c12 [Cpd 35, 2-(1,8-Dioxa-2-aza-spiro[4.5]dec-2-en-3-yl)-6-(2-trifluoromethyl-phenyl)-3H-benzimidazole-4-carbonitrile hydrochloride] |  |  | 100
13 |  | FC(F)(F)c1ccccc1-c1ccc2[nH]c(C3=NCC4(CCCCC4)O3)nc2c1 [Cpd 4, 2-[5-(2-Trifluoromethyl-phenyl)-1H-benzimidazol-2-yl]-1-oxa-3-aza-spiro[4.5]dec-2-ene] |  |  | 84
14 | 13.4 | Fc1ccccc1-c1ccc2[nH]c(C3=NOC4(CCOCC4)C3)nc2c1 [Cpd 31, 3-[5-(2-Fluoro-phenyl)-1H-benzimidazol-2-yl]-1,8-dioxa-2-aza-spiro[4.5]dec-2-ene hydrochloride] |  |  | 99
